# Experimental data published in US10597388B2, “Pyridazinone herbicides” (FMC CORPORATION, priority 2014, dated 2020).
# Key:
# Assay in all cases: Test E greenhouse herbicide test, pre- and postemergence
# Type in all cases: in vivo
# [1] = system: arrowleaf sida (Sida rhombifolia)
# In short: (§1)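 For each species, sown seed in silt loam and young plants (2 to 18 cm) in a peat/vermiculite medium were each treated with compound dissolved in surfactant-containing, non-phytotoxic solvent. After 14 to 21 d under greenhouse conditions, effects were visually rated, 100 meaning complete control.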
# [2] = system: barnyardgrass (Echinochloa crus-galli)
# In short: as §1
# [3] = system: beggarticks (hairy beggarticks, Bidens pilosa)
# In short: as §1
# [4] = system: crabgrass, large (large crabgrass, Digitaria sanguinalis); conditions: Preemergence
# In short: as §1
# [5] = system: field bindweed (Convolvulus arvensis)
# In short: as §1
# [6] = system: foxtail, giant (giant foxtail, Setaria faberii); conditions: Preemergence
# In short: as §1
# [7] = system: goosegrass (Eleusine indica); conditions: Preemergence
# In short: as §1
# [8] = system: johnsongrass (Sorghum halepense); conditions: Preemergence
# In short: as §1
# kochia (Kochia scoparia) = system: kochia (Kochia scoparia)
# In short: as §1
# [9] = system: momingglory (Ipomoea coccinea); conditions: Preemergence
# In short: as §1
# [10] = system: nightshade (eastern black nightshade, Solanum ptycanthum); conditions: Preemergence
# In short: as §1
# [11] = system: nutsedge, yellow (yellow nutsedge, Cyperus esculentus); conditions: Preemergence
# In short: as §1
# [12] = system: panicum, fall (fall panicum, Panicum dichotomiflorum)
# In short: as §1
# [13] = system: ragweed (common ragweed, Ambrosia elatior)
# In short: as §1
# [14] = system: sandbur (southem sandbur, Cenchrus echinatus)
# In short: as §1
# [15] = system: surinam grass (Brachiaria decumbens); conditions: Preemergence
# In short: as §1
# [16] = system: velvetleaf (Abutilon theophrasti); conditions: Preemergence
# In short: as §1
# [17] = 62 g ai/ha, Postemergence, scale 0 to 100 (0 no effect, 100 complete control)
# [18] = 62 g ai/ha, Preemergence, scale 0 to 100 (0 no effect, 100 complete control)
# [19] = 125 g ai/ha, Postemergence, scale 0 to 100 (0 no effect, 100 complete control)
# [20] = 250 g ai/ha, Postemergence, scale 0 to 100 (0 no effect, 100 complete control)
# [21] = Postemergence, 31 g ai/ha, visual, scale 0 no effect to 100 complete control
# [22] = Preemergence, 31 g ai/ha, scale 0 to 100, 0 no effect, 100 complete control
# [23] = Preemergence, 125 g ai/ha, visual, scale 0 no effect to 100 complete control
# [24] = Preemergence, 250 g ai/ha, visual, scale 0 no effect to 100 complete control
# [25] = 62 g ai/ha, scale 0 to 100 (0 no effect, 100 complete control)
# [26] = 31 g ai/ha, scale 0 to 100, 0 no effect, 100 complete control
# [27] = 125 g ai/ha, visual, scale 0 no effect to 100 complete control
# [28] = 250 g ai/ha, visual, scale 0 no effect to 100 complete control
# [29] = 125 g ai/ha, scale 0 to 100 (0 no effect, 100 complete control)
# [30] = 125 g ai/ha, Preemergence, scale 0 to 100 (0 no effect, 100 complete control)
structure (smiles),measurement,setting,value
CCc1sc2ccc(C)cc2c1-c1c(O)c(C)nn(C)c1=O [Compound 47],"Plant response rating, Arrowleaf Sida",[1]; [17],50
same,"Plant response rating, Arrowleaf Sida",[1]; [18],0
same,"Plant response rating, Arrowleaf Sida",[1]; [19],60
same,"Plant response rating, Arrowleaf Sida",[1]; [20],60
same,"Plant response rating, Arrowleaf Sida",[1]; [21],40
same,"Plant response rating, Arrowleaf Sida",[1]; [22],0
same,"Plant response rating, Arrowleaf Sida",[1]; [23],75
same,"Plant response rating, Arrowleaf Sida",[1]; [24],90
same,"Plant response rating, Barnyardgrass",[2]; [17],30
same,"Plant response rating, Barnyardgrass",[2]; [18],0
same,"Plant response rating, Barnyardgrass",[2]; [19],40
same,"Plant response rating, Barnyardgrass",[2]; [20],60
same,"Plant response rating, Barnyardgrass",[2]; [21],10
same,"Plant response rating, Barnyardgrass",[2]; [22],0
same,"Plant response rating, Barnyardgrass",[2]; [23],50
same,"Plant response rating, Barnyardgrass",[2]; [24],95
same,"Plant response rating, Beggarticks",[3]; [17],100
same,"Plant response rating, Beggarticks",[3]; [18],100
same,"Plant response rating, Beggarticks",[3]; [19],98
same,"Plant response rating, Beggarticks",[3]; [20],98
same,"Plant response rating, Beggarticks",[3]; [21],85
same,"Plant response rating, Beggarticks",[3]; [22],100
same,"Plant response rating, Beggarticks",[3]; [23],100
same,"Plant response rating, Beggarticks",[3]; [24],100
same,"Plant response rating, Crabgrass, Large",[4]; [25],0
same,"Plant response rating, Crabgrass, Large",[4]; [26],0
same,"Plant response rating, Crabgrass, Large",[4]; [27],0
same,"Plant response rating, Crabgrass, Large",[4]; [28],35
same,"Plant response rating, Field Bindweed",[5]; [17],75
same,"Plant response rating, Field Bindweed",[5]; [18],50
same,"Plant response rating, Field Bindweed",[5]; [19],85
same,"Plant response rating, Field Bindweed",[5]; [20],90
same,"Plant response rating, Field Bindweed",[5]; [21],70
same,"Plant response rating, Field Bindweed",[5]; [22],50
same,"Plant response rating, Field Bindweed",[5]; [23],90
same,"Plant response rating, Field Bindweed",[5]; [24],100
same,"Plant response rating, Foxtail, Giant",[6]; [25],0
same,"Plant response rating, Foxtail, Giant",[6]; [26],0
same,"Plant response rating, Foxtail, Giant",[6]; [27],40
same,"Plant response rating, Foxtail, Giant",[6]; [28],80
same,"Plant response rating, Goosegrass",[7]; [25],0
same,"Plant response rating, Goosegrass",[7]; [26],0
same,"Plant response rating, Goosegrass",[7]; [27],0
same,"Plant response rating, Goosegrass",[7]; [28],0
same,"Plant response rating, Johnsongrass",[8]; [25],0
same,"Plant response rating, Johnsongrass",[8]; [26],0
same,"Plant response rating, Johnsongrass",[8]; [27],0
same,"Plant response rating, Johnsongrass",[8]; [28],20
same,"Plant response rating, Kochia",kochia (Kochia scoparia); [17],70
same,"Plant response rating, Kochia",kochia (Kochia scoparia); [18],85
same,"Plant response rating, Kochia",kochia (Kochia scoparia); [19],80
same,"Plant response rating, Kochia",kochia (Kochia scoparia); [20],85
same,"Plant response rating, Kochia",kochia (Kochia scoparia); [21],60
same,"Plant response rating, Kochia",kochia (Kochia scoparia); [22],0
same,"Plant response rating, Kochia",kochia (Kochia scoparia); [23],75
same,"Plant response rating, Kochia",kochia (Kochia scoparia); [24],100
same,"Plant response rating, Morningglory",[9]; [25],75
same,"Plant response rating, Morningglory",[9]; [29],100
same,"Plant response rating, Morningglory",[9]; [26],25
same,"Plant response rating, Morningglory",[9]; [28],100
same,"Plant response rating, Nightshade",[10]; [25],98
same,"Plant response rating, Nightshade",[10]; [29],100
same,"Plant response rating, Nightshade",[10]; [26],80
same,"Plant response rating, Nightshade",[10]; [28],100
same,"Plant response rating, Nutsedge, Yellow",[11]; [29],30
same,"Plant response rating, Nutsedge, Yellow",[11]; [26],0
same,"Plant response rating, Nutsedge, Yellow",[11]; [28],35
same,"Plant response rating, Panicum, Fall",[12]; [17],55
same,"Plant response rating, Panicum, Fall",[12]; [18],50
same,"Plant response rating, Panicum, Fall",[12]; [19],55
same,"Plant response rating, Panicum, Fall",[12]; [30],80
same,"Plant response rating, Panicum, Fall",[12]; [20],70
same,"Plant response rating, Panicum, Fall",[12]; [21],40
same,"Plant response rating, Panicum, Fall",[12]; [22],50
same,"Plant response rating, Panicum, Fall",[12]; [24],95
same,"Plant response rating, Ragweed",[13]; [17],90
same,"Plant response rating, Ragweed",[13]; [18],95
same,"Plant response rating, Ragweed",[13]; [19],95
same,"Plant response rating, Ragweed",[13]; [30],98
same,"Plant response rating, Ragweed",[13]; [20],95
same,"Plant response rating, Ragweed",[13]; [21],80
same,"Plant response rating, Ragweed",[13]; [22],80
same,"Plant response rating, Ragweed",[13]; [24],100
same,"Plant response rating, Sandbur",[14]; [17],20
same,"Plant response rating, Sandbur",[14]; [18],0
same,"Plant response rating, Sandbur",[14]; [19],25
same,"Plant response rating, Sandbur",[14]; [30],10
same,"Plant response rating, Sandbur",[14]; [20],35
same,"Plant response rating, Sandbur",[14]; [21],20
same,"Plant response rating, Sandbur",[14]; [22],0
same,"Plant response rating, Sandbur",[14]; [24],70
same,"Plant response rating, Surinam Grass",[15]; [25],0
same,"Plant response rating, Surinam Grass",[15]; [29],35
same,"Plant response rating, Surinam Grass",[15]; [26],0
same,"Plant response rating, Surinam Grass",[15]; [28],35
same,"Plant response rating, Velvetleaf",[16]; [29],75
same,"Plant response rating, Velvetleaf",[16]; [26],0
same,"Plant response rating, Velvetleaf",[16]; [28],100
